Experimental data as given in PubChem BioAssay (NCI).
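Exposure lasted 48 hours, with cells grown in 96-well plates and compounds tested at five concentrations. Here, GI50 denotes the concentration required for 50% inhibition of growth. At the TGI there is no net growth.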

How the values were obtained:
Experiment in all cases: inhibition of tumour cell growth, NCI panel, 48 h
ACHN renal = system: ACHN renal
CAKI-1 renal = system: CAKI-1 renal
HT29 colon = system: HT29 colon
MDA-MB-231 breast = system: MDA-MB-231 breast
MDA-MB-435 = system: MDA-MB-435
OVCAR-4 ovarian = system: OVCAR-4 ovarian
SK-OV-3 ovarian = system: SK-OV-3 ovarian
SN12C renal = system: SN12C renal
SR leukemia = system: SR leukemia
TK-10 renal = system: TK-10 renal

SMILES: CNC(=O)c1cc(Oc2ccc(NC(=O)Nc3ccc(Cl)c(OC(F)(F)F)c3)c(F)c2)ccn1
- GI50 (ACHN renal): 1.33 µM
- TGI (ACHN renal): > 33.2 µM
- GI50 (CAKI-1 renal): 2.89 µM
- TGI (CAKI-1 renal): > 33.2 µM
- GI50 (HT29 colon): 1.17 µM
- TGI (HT29 colon): 13.5 µM
- GI50 (MDA-MB-231 breast): 1.26 µM
- TGI (MDA-MB-231 breast): 8.74 µM
- GI50 (MDA-MB-435): 1.29 µM
- TGI (MDA-MB-435): 10.9 µM
- GI50 (OVCAR-4 ovarian): 1.24 µM
- TGI (OVCAR-4 ovarian): > 33.2 µM
- GI50 (SK-OV-3 ovarian): 4.32 µM
- TGI (SK-OV-3 ovarian): > 33.2 µM
- GI50 (SN12C renal): 2.05 µM
- TGI (SN12C renal): 23 µM
- GI50 (SR leukemia): 1.49 µM
- TGI (SR leukemia): 7.99 µM
- GI50 (TK-10 renal): 2.44 µM
- TGI (TK-10 renal): > 33.2 µM

SMILES: COc1cc(-c2cn(C)c(=O)c(C)c2C)cc(OC)c1CN1CC[C@H](N2CCN(c3ccc(N[C@H]4CCC(=O)NC4=O)cc3F)CC2)C(F)(F)C1
- GI50 (ACHN renal): 15.2 µM
- TGI (ACHN renal): 28.8 µM
- GI50 (CAKI-1 renal): 6.87 µM
- TGI (CAKI-1 renal): 33.4 µM
- GI50 (HT29 colon): 11.4 µM
- TGI (HT29 colon): 27.2 µM
- GI50 (MDA-MB-231 breast): 11.5 µM
- TGI (MDA-MB-231 breast): 25.4 µM
- GI50 (MDA-MB-435): 13.8 µM
- TGI (MDA-MB-435): 30 µM
- GI50 (OVCAR-4 ovarian): 12.1 µM
- TGI (OVCAR-4 ovarian): 26.9 µM
- GI50 (SK-OV-3 ovarian): 18.4 µM
- TGI (SK-OV-3 ovarian): 36.2 µM
- GI50 (SN12C renal): 11.6 µM
- TGI (SN12C renal): 26.8 µM
- GI50 (SR leukemia): 6.7 µM
- TGI (SR leukemia): 51 µM
- GI50 (TK-10 renal): 12 µM
- TGI (TK-10 renal): 28.8 µM

SMILES: C[C@H]1CCC/C=C/[C@@H]2C[C@H](N)C[C@H]2[C@H](O)/C=C/C(=O)O1
- GI50 (ACHN renal): > 100 µM
- TGI (ACHN renal): > 100 µM
- GI50 (CAKI-1 renal): > 100 µM
- TGI (CAKI-1 renal): > 100 µM
- GI50 (HT29 colon): > 100 µM
- TGI (HT29 colon): > 100 µM
- GI50 (MDA-MB-231 breast): > 100 µM
- TGI (MDA-MB-231 breast): > 100 µM
- GI50 (MDA-MB-435): > 100 µM
- TGI (MDA-MB-435): > 100 µM
- GI50 (OVCAR-4 ovarian): > 100 µM
- TGI (OVCAR-4 ovarian): > 100 µM
- GI50 (SK-OV-3 ovarian): > 100 µM
- TGI (SK-OV-3 ovarian): > 100 µM
- GI50 (SN12C renal): > 100 µM
- TGI (SN12C renal): > 100 µM
- GI50 (SR leukemia): 74 µM
- TGI (SR leukemia): > 100 µM
- GI50 (TK-10 renal): > 100 µM
- TGI (TK-10 renal): > 100 µM

SMILES: CC1=C(C)C(=O)O[C@@H]([C@](C)(O)[C@]2(O)CC[C@@]3(O)[C@@H]4C[C@H]5O[C@]56CC=CC(=O)[C@]6(C)[C@H]4CC[C@]23C)C1
- GI50 (ACHN renal): 0.29 µM
- TGI (ACHN renal): 1.45 µM
- GI50 (CAKI-1 renal): 0.18 µM
- TGI (CAKI-1 renal): 2.11 µM
- GI50 (HT29 colon): 0.066 µM
- TGI (HT29 colon): 1.47 µM
- GI50 (MDA-MB-231 breast): 0.394 µM
- TGI (MDA-MB-231 breast): 7.66 µM
- GI50 (MDA-MB-435): 0.0541 µM
- TGI (MDA-MB-435): 1.08 µM
- GI50 (OVCAR-4 ovarian): 0.121 µM
- TGI (OVCAR-4 ovarian): 15.8 µM
- GI50 (SK-OV-3 ovarian): 0.909 µM
- TGI (SK-OV-3 ovarian): 18.8 µM
- GI50 (SN12C renal): 0.411 µM
- TGI (SN12C renal): 3.63 µM
- GI50 (SR leukemia): 0.0552 µM
- TGI (SR leukemia): > 100 µM
- GI50 (TK-10 renal): 0.0482 µM
- TGI (TK-10 renal): 0.995 µM

SMILES: CCCCCCNc1nc(NCCCCCC)c2[nH]c(NCCCCCC)nc2n1
- GI50 (ACHN renal): 15 µM
- TGI (ACHN renal): 37.8 µM
- GI50 (CAKI-1 renal): 16.2 µM
- TGI (CAKI-1 renal): 50.9 µM
- GI50 (HT29 colon): 5.59 µM
- TGI (HT29 colon): 18.8 µM
- GI50 (MDA-MB-231 breast): 5.09 µM
- TGI (MDA-MB-231 breast): 19.3 µM
- GI50 (MDA-MB-435): 8.75 µM
- TGI (MDA-MB-435): 24.9 µM
- GI50 (OVCAR-4 ovarian): 6.97 µM
- TGI (OVCAR-4 ovarian): 21.2 µM
- GI50 (SK-OV-3 ovarian): 24.8 µM
- TGI (SK-OV-3 ovarian): > 74.1 µM
- GI50 (SN12C renal): 3.75 µM
- TGI (SN12C renal): 17.6 µM
- GI50 (SR leukemia): 0.582 µM
- TGI (SR leukemia): 3.43 µM
- GI50 (TK-10 renal): 21.3 µM
- TGI (TK-10 renal): 46.6 µM

SMILES: CS(=O)(=O)Nc1ccc(-c2ccc3c(NC(=O)C4CC4)n[nH]c3c2)cc1
- GI50 (ACHN renal): > 25 µM
- TGI (ACHN renal): > 25 µM
- GI50 (CAKI-1 renal): > 25 µM
- TGI (CAKI-1 renal): > 25 µM
- GI50 (HT29 colon): > 23.6 µM
- TGI (HT29 colon): > 25 µM
- GI50 (MDA-MB-231 breast): > 25 µM
- TGI (MDA-MB-231 breast): > 25 µM
- GI50 (MDA-MB-435): > 25 µM
- TGI (MDA-MB-435): > 25 µM
- GI50 (OVCAR-4 ovarian): 7.2 µM
- TGI (OVCAR-4 ovarian): > 25 µM
- GI50 (SK-OV-3 ovarian): 13.7 µM
- TGI (SK-OV-3 ovarian): > 25 µM
- GI50 (SN12C renal): > 25 µM
- TGI (SN12C renal): > 25 µM
- GI50 (SR leukemia): > 21.2 µM
- TGI (SR leukemia): > 25 µM
- GI50 (TK-10 renal): > 25 µM
- TGI (TK-10 renal): > 25 µM

SMILES: CN1CCN(Cc2ccc(NC(=O)c3ccc(C(C)(C)C)c(C#Cc4cnc5cccnn45)c3)cc2C(F)(F)F)CC1
- GI50 (ACHN renal): 1.99 µM
- TGI (ACHN renal): 3.69 µM
- GI50 (CAKI-1 renal): 12.1 µM
- TGI (CAKI-1 renal): 26.7 µM
- GI50 (HT29 colon): 1.68 µM
- TGI (HT29 colon): 3.4 µM
- GI50 (MDA-MB-231 breast): 1.97 µM
- TGI (MDA-MB-231 breast): 4.14 µM
- GI50 (MDA-MB-435): 1.5 µM
- TGI (MDA-MB-435): 2.95 µM
- GI50 (OVCAR-4 ovarian): 4.64 µM
- TGI (OVCAR-4 ovarian): 19.7 µM
- GI50 (SK-OV-3 ovarian): 11.3 µM
- TGI (SK-OV-3 ovarian): 24.4 µM
- GI50 (SN12C renal): 9.62 µM
- TGI (SN12C renal): 26.4 µM
- GI50 (SR leukemia): 0.199 µM
- TGI (SR leukemia): 0.512 µM
- GI50 (TK-10 renal): 2.62 µM
- TGI (TK-10 renal): 7.02 µM

SMILES: Oc1c(Br)cc(CN(Cc2cc(Br)c(O)c(Br)c2)C2CCCCC2)cc1Br
- TGI (ACHN renal): > 100 µM
- TGI (CAKI-1 renal): > 100 µM
- TGI (HT29 colon): > 100 µM
- TGI (MDA-MB-231 breast): > 100 µM
- TGI (MDA-MB-435): > 100 µM
- TGI (OVCAR-4 ovarian): > 100 µM
- TGI (SK-OV-3 ovarian): > 100 µM
- TGI (SN12C renal): > 100 µM
- TGI (SR leukemia): > 100 µM
- TGI (TK-10 renal): > 100 µM

SMILES: Cc1ncc(NC(=O)c2ccc(CN3CCN(C)CC3)c(C(F)(F)F)c2)cc1Nc1nccc(-c2cccnc2)n1
- GI50 (ACHN renal): 14.2 µM
- TGI (ACHN renal): 27.3 µM
- GI50 (CAKI-1 renal): 13.7 µM
- TGI (CAKI-1 renal): 26.7 µM
- GI50 (HT29 colon): 2.81 µM
- TGI (HT29 colon): 21.8 µM
- GI50 (MDA-MB-231 breast): 12.5 µM
- TGI (MDA-MB-231 breast): 27.3 µM
- GI50 (MDA-MB-435): 12 µM
- TGI (MDA-MB-435): 24.4 µM
- GI50 (OVCAR-4 ovarian): 15.5 µM
- TGI (OVCAR-4 ovarian): 29.4 µM
- GI50 (SK-OV-3 ovarian): 19.3 µM
- TGI (SK-OV-3 ovarian): 34.2 µM
- GI50 (SN12C renal): 14.4 µM
- TGI (SN12C renal): 28.9 µM
- GI50 (SR leukemia): 2.9 µM
- TGI (SR leukemia): 47.8 µM
- GI50 (TK-10 renal): 21.6 µM
- TGI (TK-10 renal): 39.1 µM

SMILES: NCCN1CCN(c2nccc(-c3ccc4ccccc4c3)n2)CC1
- GI50 (ACHN renal): 1.71 µM
- TGI (ACHN renal): 3.29 µM
- GI50 (CAKI-1 renal): 1.55 µM
- TGI (CAKI-1 renal): 2.95 µM
- GI50 (HT29 colon): 1.93 µM
- TGI (HT29 colon): 3.77 µM
- GI50 (MDA-MB-231 breast): 1.66 µM
- TGI (MDA-MB-231 breast): 3.31 µM
- GI50 (MDA-MB-435): 1.8 µM
- TGI (MDA-MB-435): 3.25 µM
- GI50 (OVCAR-4 ovarian): 2.41 µM
- TGI (OVCAR-4 ovarian): 7.5 µM
- GI50 (SK-OV-3 ovarian): 2.1 µM
- TGI (SK-OV-3 ovarian): 5.34 µM
- GI50 (SN12C renal): 1.71 µM
- TGI (SN12C renal): 3.81 µM
- GI50 (SR leukemia): 1.87 µM
- TGI (SR leukemia): 6.11 µM
- GI50 (TK-10 renal): 1.78 µM
- TGI (TK-10 renal): 3.27 µM

SMILES: CC(C)(C)c1nc2c(o1)C(=Nc1ccc(F)cc1)c1ccccc1C2=O
- TGI (ACHN renal): 32.1 µM
- TGI (CAKI-1 renal): > 100 µM
- TGI (HT29 colon): 41.6 µM
- TGI (MDA-MB-231 breast): > 100 µM
- TGI (MDA-MB-435): 3.76 µM
- TGI (OVCAR-4 ovarian): > 100 µM
- TGI (SK-OV-3 ovarian): 45.9 µM
- TGI (SN12C renal): 23.8 µM
- TGI (SR leukemia): > 100 µM
- TGI (TK-10 renal): 68.3 µM
